Consider 1 compound from patent publication US9072729B2, “Method for treating fibrosis and cancer with imidazolium and imidazolinium compounds” (Agency for Science, Technology and Research, priority 2008, dated 2015).

The test system of one data set is HepG2 cells. Kind of data set: Cell based caspase 3/7 and LDH assays, HepG2. Set-up: species or system human. The settings on record: HepG2, 6 hr. As to the method:
FIG. 22. […] HLE or HepG2 cells were incubated with DBZIM of various concentrations for 6 hr, and assayed for caspase 3/7 activity and LDH releasing (expressed as % toxicity). DBZIM induced apoptosis as characterized by annexin V staining using flow cytometer in HLE (E) and HepG2 (F). Scatter plot and histogram gave the representative information on the cell population distribution while bar graphs quantified the percentage of apoptotic cells from the histogram. HLE and HepG2 cells were treated by DBZIM of various concentrations for 24 hr before harvesting for annexin V staining and flow cytometric analysis.
Capspase 3/7 activity and lactate dehydrogenase (LDH) release were measured by Fluorometric assays (Promega Corp., WI, USA). The HCC cells were cultured in 96-well plate and treated with DBZIM of various concentrations for 6 hr before assays. For caspase 3/7 assay, medium was removed and substrate buffer was added to lyse the cell and react with caspase 3/7 to give rise to fluorescence signal which was read at Ex=485 nm and Em=530 nm on a Tecan Safire II plate reader after 1 hr incubation. The caspase 3/7 activity of sample cells with the compound treatment was expressed as relative fold change after normalizing to the control cells. The LDH assay (indicative of membrane integrity) was performed using a Kit from Promega Corp according to manufactor's instructions.

The next data set deals with AP-1. Kind of data set: Western blot of AP-1 complex members in nuclear extracts. The class given is cell-based, human. The settings on record: 24 hr. As to the method: FIG. 28. DBZIM induced up-regulation of AP-1 expression in HepG2 cells. HepG2 cells were treated with DBZIM for 24 hr. Cytoplasmic and nuclear proteins were fractionated using a kit from Pierce. 15 μg of nuclear proteins were resolved in 4-12% gradient PAGE-SDS gel. The target proteins were recognized by their respective antibodies, and visualized by the ECL method. The membrane was stripped and re-probed for Tata binding protein TBP as loading control.
Protein extracts were prepared by lysing cell pellet in RIPA buffer (Pierce, Ill., USA) for total protein extract, or in NE-PER reagent from Pierce (Pierce, Ill., USA) for nuclear and cytoplasmic fractions, or in a Kit from BioVision (CA, USA) for mitochondria and cytosol fractions. Protein content was quantified using BCA Kit (Pierce, Ill., USA). […] The membrane was then probed with primary antibodies against Bcl-XL, Bak, Bcl-2α, Bax (Lab Vision Corp., CA, USA), survivin, xIAP, cIAP (R&D systems Inc., MN, USA), c-Jun, c-Fos, JunB, JunD, Fra-1, Fra-2 (Santa Cruz Biotechnology, CA, USA) respectively, and detected by horseradish peroxidase-conjugated secondary antibody (Santa Cruz Biotechnology, CA, USA). Protein bands were recorded on X-ray film by reacting with ECL chemiluminescence reagents (Amersham Biosciences, NJ, USA). […]
On the technique in general: In western blotting, separated proteins are transferred to a membrane and probed.

The subject of a further data set is MCF-7. In words: Proliferation assay (MTS), breast cancer cell line. The class given is cell-based. The settings on record: Homo sapiens, MCF7, 72 h; MCF-7 (breast cancer), determined at day 3. As to the method:
Proliferation of Glioma cell lines: U87 MG and C6 under the treatment of DBZIM was examined using 3-(4,5-dimethylthiazol-2-yl)-5-(3-carboxymethoxyphenyl)-2-(4-sulfophenyl)-2H-tetrazolium (MTS) based proliferation assay kit (Promega, Wis., USA). MTS reagent was added to the control and treated cells (after 48 hr) directly and the absorbance signal was read at 490 nm using a Tecan Safire II plate reader.
The IC50 value (determined at day 3) was 50 μM for H1299 (lung cancer); 50 μM for MCF-7 (breast cancer), and 40 μM for AGS gastric cancer at day 3 (Table 3).

The subject of another data set is AIF. In words: AIF translocation (Western blot and HCS). Particulars: 24 hr. The class given is cell-based, human. As to the method:
FIG. 26. DBZIM induced cytoplasm-to-nucleus translocation of AIF. (A). DBZIM translocated AIF from cytoplasm to nucleus. HepG2 cells were treated by DBZIM for 24 hr. Cytoplasmic and nuclear proteins were fractionated using a kit from Pierce. 15 μg of proteins were resolved in 4-12% gradient PAGE-SDS gel. The target proteins were recognized by the antibody of AIF, and visualized by the ECL method. The membrane was stripped and re-probed for α-tubulin as the loading control for cytoplasmic fraction and Tata binding protein TBP for nuclear protein. (B). HLE cells were grown in 96-well plate and treated by DBZIM for 24 hr. The cells were then fixed and stained by antibody of AIF. The images were acquired and analyzed using ArrayScan VTI HCS reader (Thermal Scientific, PA, USA) and Target Activation BioApplication software. The arrows indicate the cytoplasmic and the nuclear location of the AIF staining in the control and the DBZIM, respectively. (C). Quantification of AIF staining in different subcellular compartments. […]
HLE cells cultured in 96-well plate were treated with DBZIM for 24 hr before staining and imaging. […] The cells were imaged and analyzed on ArrayScan VTI HCS reader (Thermal Scientific, PA, USA). Fluorescence intensity in the cytoplasmic and nuclear area was plotted for indication of cytoplasm to nucleus translocation. […]

Structures are written as SMILES.

The IC50 is the concentration at which inhibition is half-maximal. Read a low IC50 as greater potency in that assay. Turning to `[Br-].c1ccc(Cn2cc[n+](Cc3ccccc3)c2)cc1` [DBZIM, 1,3-bisbenzylimidazolium bromide], in the data set on HepG2 cells, the LDH release result is recorded as “least affected” and the “caspase 3/7 activity” value is recorded as “enhanced”. In addition, the “AP-1 complex members (C-Jun, Jun B, Jun D, Fra-1; not Fra-2)” value with AP-1 is “significantly induced”. Further, it took 50 µM to reach half-maximal inhibition with MCF-7 (IC50). The AIF translocation entry in the data set on AIF is given as “induce the translocation of AIF to the nucleus”.
